The values below come from paper PMC10945332, “Precision peptide theranostics: developing N- to C-terminus optimized theranostics targeting cholecystokinin-2 receptor” (Theranostics, 2024).

Like-named read-outs stand apart in the source and are kept apart here. Where a SMILES comes first, the peptide text is derived from it. [ ]: non-standard residue; d: D form. The star is where a group is joined. DOTA = O=C(O)CN1CCN(CC(=O)O)CCN(CC(=O)*)CCN(CC(=O)O)CC1; NMe1Nal = CN[C@@H](Cc1cccc2ccccc12)C(=O)O; NMeNle = CCCC[C@H](NC)C(=O)O; Sar = CNCC(=O)O

The subject of data set [1] is AR42J xenografts. The settings on record: AR42J xenografts; [68Ga]Ga labeled; 1 hour post-injection; cited from earlier work.
Data set [2] concerns A431-CCK2R tumors. The note with it: A431-CCK2R/NSG mouse model; 1 hour post-injection; data shown for [177Lu]Lu-CP04; cited from earlier work.
Data set [3] has as its target T1, human CCK2R (Homo sapiens, UniProt P32239).
T1 construct: stably transfected to over-express the human full-length CCK2R (A431-CCK2R); expressed in transfected cells
T1 sequence (P32239 1-447): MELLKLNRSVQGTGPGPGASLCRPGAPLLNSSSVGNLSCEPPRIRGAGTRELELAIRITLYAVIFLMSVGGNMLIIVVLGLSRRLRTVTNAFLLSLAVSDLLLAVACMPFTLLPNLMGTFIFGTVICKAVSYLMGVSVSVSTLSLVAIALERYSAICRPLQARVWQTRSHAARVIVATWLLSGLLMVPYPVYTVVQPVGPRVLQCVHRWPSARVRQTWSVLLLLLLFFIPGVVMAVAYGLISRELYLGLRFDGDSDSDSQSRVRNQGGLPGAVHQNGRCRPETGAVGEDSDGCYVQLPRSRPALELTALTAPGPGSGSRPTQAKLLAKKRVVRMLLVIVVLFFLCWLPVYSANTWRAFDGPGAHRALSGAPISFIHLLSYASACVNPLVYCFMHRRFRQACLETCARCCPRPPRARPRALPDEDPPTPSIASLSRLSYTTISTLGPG
Briefly: Competitive binding against [177Lu]Lu-DOTA-CP04 in A431-CCK2R cells. The procedure: Materials and Methods: Biology […]
In Vitro CCK2R-Ligand Competitive Binding Assays
All CCK2R binding experiments were conducted using A431 (human epidermoid carcinoma) […]
cells stably transfected to over-express the human full-length CCK2R (A431-CCK2R) (gifted […]
by Dr. Elisabeth von Guggenberg, Medizinische Universität Innsbruck).[41] As a negative […]
control, A431 cells stably transfected with an empty vector were analysed simultaneously […]
(A431-EV). All A431 cells were maintained in DMEM (Gibco, Australia) media supplemented […]
with 10% foetal calf serum and 250 µg/mL G418 as described previously.[32]
The affinity of all peptides for the CCK2R was evaluated using competitive binding assays […]
Briefly, 48 hours before the experiment […]
cells were plated at a density of 300,000 cells per well in 12 well plates. On the day of the […]
experiment, linear peptides were diluted in DMEM supplemented with 1% foetal calf serum to […]
DOTA-CP04 was added to each dilution. Cells were washed twice in ice-cold binding buffer […]
(DMEM supplemented with 1% foetal calf serum) and resuspended in 1 mL of the pre-prepared […]
peptide mix before being incubated at room temperature for 1 hour. Post-incubation the media […]
was removed and kept for analysis (unbound fraction) and the cells were washed twice in ice- […]
cold PBS which was pooled with the unbound fraction. Finally, 1 M NaOH (150µL) was added […]
to the wells and allowed to incubate for 5 min before lysates were collected (bound fraction).
A small volume of lysate was kept aside to determine protein concentration using the Pierce® BCA protein assay kit (Thermo Fisher, Australia). All samples were analysed using the Perkin […]
normalised according to protein concentration. Half maximal inhibitory concentration (IC50) was determined using nonlinear regression calculated using Gr aphPad Prism Software (GraphPad Software, California, USA). […]

Data set [4] relates to CCK2R. On the set-up: method as in PMID 33826325. The settings on record: peptide with gallium coordinated DOTA at the N-terminus; previously assessed; read-out: affinity for CCK2R; cited from earlier work.
The conditions of data set [5]: mouse, in vivo. The procedure: (§1) In order to assess these promising ligands as potential theranostics, the library of [^68Ga]Ga-DOTA-peptides was evaluated using static small animal PET imaging and quantifying biodistribution studies. This study was performed to investigate tumor uptake as well as the accumulation of radioligands in other organs. Mice bearing A431-CCK2R tumors were imaged at 1- and 2 hours post tracer injection, and tracer biodistribution was evaluated at the 1 hour and 2.5 hour time points to quantify tumor uptake and retention. […]
(§2) Small Animal PET Imaging and Biodistribution Studies
(§3) Female NSG mice (age 11-14 weeks) were sourced from Animal Resources Centre, (Canning Vale, Western Australia) and were inoculated subcutaneously on the right flank with 1-3 x 106 […]
(§4) A431-CCK2R cells in PBS:Matrigel (1:1). […]
(§5) Mice were assigned to imaging and/or biodistribution groups (tumour volumes: 119-327 mm3).
(§6) The respective 68Ga labelled tracer (1.63–3.81 MBq, 170µL, 13.7–14.2 pmoles) containing vehicle solution (75µL, DMSO:Tween 80: water, 2:2:6 v/v/v) was then administered to mice intravenously via tail vein injection. Three mice were euthanized for biodistribution 1 hour post injection (n=3) and selected tissues were excised, weighed, and counted using a Capintec (Captus 4000e) gamma counter. Three mice were anaesthetised using 1.5% isoflurane and imaged at 1 hour (n=3) and 2 hours (n=3) with a G8 Small Animal PET/CT scanner (Perkin […]
(§7) Elmer/Sofie Biosciences). A 10 min static PET scan was acquired, followed immediately by a CT scan (Supplementary Data, pS51–S55). PET images were acquired using the G8 acquisition engine software and reconstructed using a 3D maximal likelihood and expectation maximization (ML-EM) algorithm. PET images were analysed using VivoQuant software, version 3.0 (inviCRO Imaging Services and Software) to quantify maximum standardised uptake value in regions of interest (SUVmax). Background regions for imaging experiments were calculated by quantitating mean standardised uptake value (SUVmean) of the abdomen and gut region. The region of interest was selected due to low uptake in abdomen/gut during imaging. After imaging the 2-hour time point, mice organs were harvested for biodistribution […]
(§8) For blocking CCK2R binding a solution of N-[(3R)-2,3-Dihydro-1-[2-(2-methylphenyl)-2-oxoethyl]-2-oxo-5-phenyl-1H-1,4-benzodiazepin-3-yl]-N′-(3-methylphenyl)-urea (YM022; Sigma Aldrich) was used. YM022 (75µL of a 1 mg/ml solution constituting DMSO:Tween 80: water, 2:2:6 v/v/v) was added to the respective 68Ga labelled tracer (1.41–3.61 MBq, 100 µL, 13.7–14.2 pmoles) and this mixture ([…]) was administered in three mice intravenously via tail vein injection and organs harvested at 1 hour post injection for biodistribution analysis, as above.
(§9) All animal experiments were performed with the approval of the Peter MacCallum Cancer Centre Animal Experimentation Ethics Committee and in accordance with the Australian code for the care and use of animals for scientific purposes, 8th Edition, 2013 (AEEC Approval

In data set [6] the test system is A431-CCK2R tumors. Nature of the data set: in vivo. The settings on record: female, NSG, mouse, iv, 1 h. The procedure:
as §1, §2, §3, §4, §5, §6, §7, §8, §9

Data set [7] can be described thus: in vivo. The note with it: female, NSG, mouse, iv, total radioactivity. The procedure: as §1, §2, §3, §4, §5, §6, §7, §8, §9
Data set [8] is classed as physicochemical. The procedure:
Lipophilicity, expressed as the octanol-water partition coefficient, constitutes an important property in drug action, influencing both pharmacokinetic and pharmacodynamics processes. The distribution coefficient (LogD7.4) of [^68Ga]Ga-DOTA-peptides was determined by measuring radioactivity distribution in the aqueous phase (phosphate buffer pH7.4) and the organic phase (n-octanol). […]
To determine the distribution coefficient (logD 7.4), 68Ga radiolabeled peptides [68Ga]Ga-DOTA-GA4, [68Ga]Ga-DOTA-GA7, and [68Ga]Ga-DOTA-GA11–GA13 were diluted to approximately 20 pmol/mL in PBS (pH 7.4) and an equal volume of n-octanol was added. The mixture was vortexed vigorously for 10 cycles of 1 min at room temperature before being centrifuged for 6 min to separate the two phases. Equal volumes from each phase were aliquoted into individual counting tubes and analysed for 1 min using the Perkin Elmer 2480 Wizard2™ gamma counter (PerkinElmer, Massachusetts, USA). The distribution coefficient was calculated using the following equation LogD = […]. […]

The format of data set [9] is in vitro ADME, mouse. The procedure:
Metabolic stability is an important determinant of the efficacy of peptide radiopharmaceuticals and their progression as promising theranostic candidates. In vitro, metabolic degradation through hepatic and renal enzymes can be assessed by utilizing liver and kidney tissue homogenates. Radiolabeled peptides [^68Ga]Ga-DOTA-GA4, and D-Ala substituted variants [^68Ga]Ga-DOTA-GA7, [^68Ga]Ga-DOTA-GA11-GA13 were incubated in liver and kidney mouse homogenates, in human serum at 37°C, and in HEPES buffer (pH 7.4) as a negative control. Following a time course experiment, the metabolites were analyzed using HPLC to quantify the % breakdown of the respective parent peptide. […]
To assess the stability of 68Ga radiolabeled peptides against enzymatic degradation, duplicate samples (750-900 pmol/mL, 2-5MBq) were incubated at 37 ℃ with pooled human serum, 15% […]
mouse kidney homogenate, 30% mouse liver homogenate or 20 mM HEPES, pH 7.3 (control).
Human blood was collected, and serum prepared using SSTII advance vacutainer tubes according to the manufacturer’s instructions (Becton Dickinson, New Jersey, USA). Mouse kidney and liver homogenates were prepared by washing the tissues in ice-cold HEPES buffer, pH 7.3 and placing them in pre-chilled tubes containing HEPES buffer and 2.38 mm metal beads (Mo-Bio Laboratories, Hilden, Germany). Tissues were homogenised using the PowerLyzer24 homogeniser (Qiagen, Hilden, Germany) according to the manufacturer’s instructions. 68Ga radiolabeled peptides were then incubated with the various lysates at 37 ℃ and samples were collected at 15, 30, 60 and 90 min. Reactions were terminated by addition of an equal volume of acetonitrile and centrifugation for 2 min at 15,000 rpm. Supernatants were diluted in water before being analysed by HPLC using a Kinetex C18 XB column (5µm

Turning to `CSCC[C@H](NC(=O)[C@H](Cc1c[nH]c2ccccc12)NC(=O)CNC(=O)[C@H](Cc1ccc(O)cc1)NC(=O)[C@H](C)NC(=O)[C@@H](CCC(=O)O)NC(=O)[C@@H](CCC(=O)O)NC(=O)[C@@H](CCC(=O)O)NC(=O)[C@@H](CCC(=O)O)NC(=O)[C@@H](CCC(=O)O)NC(=O)[C@H](N)CCC(=O)O)C(=O)N[C@@H](CC(=O)O)C(=O)N[C@@H](Cc1ccccc1)C(N)=O` [CP04, reference compound], the results for the Tumor uptake in [1] and in data set [2] were 5.5 ± 0.8 [34] % ID/g and 2.5 ± 0.3 [62] % ID/g, respectively. Further, the results for the IC50 in [3] and in [4] were 2.33 nM and 0.76 nM, respectively. For the same compound, in [3] (linear peptide vs its Ga-DOTA form), the “fold decrease in affinity for CCK2R without gallium coordinated DOTA at the N-terminus” value is given as “greater than 3 fold”.
`CCCC[C@@H](C(=O)N[C@@H](CC(=O)O)C(=O)N(C)[C@@H](Cc1cccc2ccccc12)C(N)=O)N(C)C(=O)[C@H](Cc1c[nH]c2ccccc12)NC(=O)CN(C)C(=O)[C@H](Cc1ccc(O)cc1)NC(=O)[C@H](C)NC(=O)[C@@H](CCC(=O)O)NC(=O)[C@@H](CCC(=O)O)NC(=O)[C@@H](CCC(=O)O)NC(=O)[C@@H](C)NC(=O)[C@@H](CCC(=O)O)NC(=O)[C@@H](CCC(=O)O)NC(=O)CN1CCN(CC(=O)O)CCN(CC(=O)O)CCN(CC(=O)O)CC1` [[^68Ga]Ga-DOTA-GA13, metal not drawn] ({DOTA}-[dE][dE][dA][dE][dE][dE]AY[Sar]W[NMeNle]D[NMe1Nal]-NH2): the tissue uptake at 1 h in [5] (3 mg/kg, Uptake in A431-CCK2R Tumors, 1 hr Blocked) is 2.53 ± 0.17 %ID/g; in data set [5] (Uptake in A431-CCK2R Tumors, 1 hr) it was 9.68 ± 1.02 %ID/g; in data set [5] (Uptake in Organs: Blood) it was 0.83 ± 0.07 %ID/g; in [5] (Uptake in Organs: Heart) it was 0.4 ± 0.03 %ID/g; in data set [5] (Uptake in Organs: Kidneys), 12.3 ± 0.63 %ID/g; in data set [5] (Uptake in Organs: Liver) it was 0.44 ± 0.03 %ID/g. In addition, the tissue uptake at 1 h in data set [5] (Uptake in Organs: Lungs) worked out at 0.85 ± 0.11 %ID/g; in data set [5] (Uptake in Organs: Muscle), 0.16 ± 0.03 %ID/g; in data set [5] (Uptake in Organs: Spleen) it was 0.43 ± 0.13 %ID/g; in [5] (Uptake in Organs: Stomach), 1.81 ± 0.12 %ID/g. The same compound returned a tissue uptake at 2.5 h in [5] (Uptake in A431-CCK2R Tumors, 2.5 hr) of 11.4 ± 0.17 %ID/g. In data set [6], this compound came in with an SUVmax of 1.86. Further, the tissue to tissue ratio at 1 h in data set [7] was 19.3 ± 1.49. Also, in [7] (SUVmax), the SUV at 2 h amounted to 0.32 SUV. Further, the logD in data set [8] was -2.59 ± 0.02. In addition, the “metabolites in kidney homogenates” value in data set [9] is “no observable metabolites detected”. For the same compound, in [9], the “metabolites in liver homogenates” value is listed as “no observable metabolites detected”.

As usually defined, the tissue uptake is the share of the injected amount in each gram of the tissue. High values mean strong accumulation, low ones little accumulation. In general, logD refers to lipophilicity at a set pH, counting ionised and neutral species. Lower therefore signals lower lipophilicity.
